Results as given in patent US10961248B2, “Pesticidally active heterocyclic derivatives with sulfur containing substituents” (SYNGENTA PARTICIPATIONS AG, priority 2016, dated 2021).

Assays:
[1] = test system: Bemisia tabaci (Cotton White Fly); assay: Example B5: activity against Bemisia tabaci, sprayed cotton leaf discs; type: in vivo; conditions: foliar, 144 h, application rate 200 ppm, adult white flies, 6 days after incubation
Description: Cotton leaf discs were placed on agar in 24-well microtiter plates and sprayed with aqueous test solutions prepared from 10'000 ppm DMSO stock solutions. After drying the leaf discs were infested with adult white flies. The samples were checked for mortality 6 days after incubation.

[2] = test system: Myzus persicae (Green Peach Aphid); assay: Example B2: activity against Myzus persicae, sprayed sunflower leaf discs; type: in vivo; conditions: foliar, 144 h, application rate 200 ppm, aphid population of mixed ages, 6 days after infestation
Description: (§1) Sunflower leaf discs were placed on agar in a 24-well microtiter plate and sprayed with aqueous test solutions prepared from 10'000 ppm DMSO stock solutions. After drying, the leaf discs were infested with an aphid population of mixed ages. The samples were assessed for mortality 6 days after infestation.

[3] = test system: Thrips tabaci (Onion Thrips); assay: Example B7: activity against Thrips tabaci, sprayed sunflower leaf discs; type: in vivo; conditions: foliar, 144 h, application rate 200 ppm, population of mixed ages, 6 days after infestation
Description: as §1, with “in” for “in a”, “plates” for “plate”, “drying” for “drying,”, “a Thrips” for “an aphid”

[4] = test system: Myzus persicae (Green Peach Aphid); assay: Example B3: activity against Myzus persicae, roots of pea seedlings in test solution; type: in vivo; conditions: 144 h, test rate 24 ppm, roots of infested pea seedlings in test solution, 6 days
Description: Roots of pea seedlings infested with an aphid population of mixed ages were placed directly in the aqueous test solutions prepared from 10'000 DMSO stock solutions. The samples were assessed for mortality 6 days after placing seedlings in test solutions.

[5] = test system: Plutella xylostella (Diamond Back Moth); assay: Example B1: activity against Plutella xylostella, artificial diet in 24-well plates; type: in vivo; conditions: 120 h, application rate 200 ppm, L2 larvae on artificial diet, 5 days after infestation, read-out: effect in at least one of the two categories (mortality or growth inhibition)
Description: (§2) 24-well microtiter plates with artificial diet were treated with aqueous test solutions prepared from 10'000 ppm DMSO stock solutions by pipetting. After drying, the plates were infested with L2 larvae (10 to 15 per well). The samples were assessed for mortality and growth inhibition in comparison to untreated samples 5 days after infestation.

[6] = test system: Diabrotica Balteata (Corn Root Worm); assay: Example B7: activity against Diabrotica balteata, sprayed maize sprouts; type: in vivo; conditions: 96 h, application rate 200 ppm, L2 larvae, 4 days after infestation, read-out: effect in at least one of the two categories (mortality or growth inhibition)
Description: as §2, with “Maize sprouts placed onto an agar layer in 24-well” for “24-well”, “plates” for “plates with artificial diet”, “spraying.” for “pipetting.”, “(6” for “(10”, “10” for “15”, “4” for “5”

[7] = test system: Tetranychus urticae (Two-Spotted Spider Mite); assay: Example B7: activity against Tetranychus urticae, sprayed bean leaf discs; type: in vivo; conditions: foliar, 192 h, application rate 200 ppm, mixed population (mobile stages), 8 days after infestation
Description: Bean leaf discs on agar in 24-well microtiter plates were sprayed with aqueous test solutions prepared from 10'000 ppm DMSO stock solutions. After drying the leaf discs were infested with a mite population of mixed ages. The samples were assessed for mortality on mixed population (mobile stages) 8 days after infestation.

[8] = test system: Euschistus heros (Neotropical Brown Stink Bug); assay: Example B6: activity against Euschistus heros, sprayed soybean leaf; type: in vivo; conditions: 120 h, application rate 200 ppm, N-2 nymphs, 5 days after infestation, read-out: effect in at least one of the two categories (mortality or growth inhibition)
Description: Soybean leaf on agar in 24-well microtiter plates were sprayed with aqueous test solutions prepared from 10'000 ppm DMSO stock solutions. After drying the leaf were infested with N-2 nymphs. The samples were assessed for mortality and growth inhibition in comparison to untreated samples 5 days after infestation.

[9] = test system: Spodoptera littoralis (Egyptian Cotton Leaf Worm); assay: Example B7: activity against Spodoptera littoralis, sprayed cotton leaf discs; type: in vivo; conditions: foliar, 72 h, application rate 200 ppm, L1 larvae, 3 days after infestation
Description: Cotton leaf discs were placed onto agar in 24-well microtiter plates and sprayed with aqueous test solutions prepared from 10'000 ppm DMSO stock solutions. After drying the leaf discs were infested with five L1 larvae. The samples were assessed for mortality, anti-feeding effect, and growth inhibition in comparison to untreated samples 3 days after infestation. Control of Spodoptera littoralis by a test sample is given when at least one of the categories mortality, anti-feedant effect, and growth inhibition is higher than the untreated sample.

[10] = test system: Frankliniella occidentalis (Western Flower Thrips); assay: Example B4: activity against Frankliniella occidentalis, sprayed sunflower leaf discs; type: in vivo; conditions: foliar, 168 h, application rate 200 ppm, population of mixed ages, 7 days after infestation
Description: as §1, with “in” for “in a”, “plates” for “plate”, “10'000” for “10'000 ppm”, “drying” for “drying,”, “a Frankliniella” for “an aphid”, “7” for “6”

[11] = test system: Spodoptera littoralis (Egyptian Cotton Leaf Worm); assay: Example B7: activity against Spodoptera littoralis, compound in agar taken up by lettuce roots; type: in vivo; conditions: 144 h, test rate 12.5 ppm, systemic via lettuce roots, Spodoptera eggs, 6 days after infestation, read-out: effect in at least one of the three categories (mortality, anti-feeding, or growth inhibition)
Description: Test compounds were applied by pipette from 10'000 ppm DMSO stock solutions into 24-well plates and mixed with agar. Lettuce seeds were placed onto the agar and the multi well plate was closed by another plate which contained also agar. After 7 days the compound was absorbed by the roots and the lettuce grew into the lid plate. The lettuce leaves were then cut off into the lid plate. Spodoptera eggs were pipetted through a plastic stencil onto a humid gel blotting paper and the lid plate was closed with it. The samples were assessed for mortality, anti-feedant effect and growth inhibition in comparison to untreated samples 6 days after infestation.

melting point | SMILES | mortality at 200 ppm [1] [%] | mortality at 200 ppm [2] [%] | mortality at 200 ppm [3] [%] | mortality at 24 ppm [4] [%] | percent effect (mortality or growth inhibition) at 200 ppm [5] [%] | percent effect (mortality or growth inhibition) at 200 ppm [6] [%] | mortality at 200 ppm [7] [%] | percent effect (mortality or growth inhibition) at 200 ppm [8] [%] | percent control (mortality, anti-feedant effect or growth inhibition) at 200 ppm [9] [%] | mortality at 200 ppm [10] [%] | percent effect (mortality, anti-feeding or growth inhibition) at 12.5 ppm [11] [%]
 | CCS(=O)(=O)c1cc(N=S(C)(C)=O)cnc1-c1nc2cc(C(F)(F)F)ncc2n1C [P2, [5-ethylsulfonyl-6-[3-methyl-6-(trifluoromethyl)imidazo[4,5-c]pyridin-2-yl]-3-pyridyl]imino-dimethyl-oxo-λ^6-sulfane] | ≥ 80 | ≥ 80 | ≥ 80 | ≥ 80 | ≥ 80 | ≥ 80 | ≥ 80 | ≥ 80 | ≥ 80 | ≥ 80 | 
 | CCS(=O)(=O)c1cc(N=S(C)(=O)C2CC2)cnc1-c1nc2cc(C(F)(F)F)ncc2n1C (stereo not drawn) [P3, cyclopropyl-[[5-ethylsulfonyl-6-[3-methyl-6-(trifluoromethyl)imidazo[4,5-c]pyridin-2-yl]-3-pyridyl]imino]-methyl-oxo-λ^6-sulfane] | ≥ 80 | ≥ 80 |  |  | ≥ 80 | ≥ 80 | ≥ 80 | ≥ 80 | ≥ 80 | ≥ 80 | ≥ 80
 | CCS(=O)(=O)c1cc(N=S(=O)(CC)CC)cnc1-c1nc2cc(C(F)(F)F)ncc2n1C [P4, diethyl-[[5-ethylsulfonyl-6-[3-methyl-6-(trifluoromethyl)imidazo[4,5-c]pyridin-2-yl]-3-pyridyl]imino]-oxo-λ^6-sulfane] | ≥ 80 | ≥ 80 |  |  | ≥ 80 | ≥ 80 | ≥ 80 | ≥ 80 | ≥ 80 |  | 
 | CCS(=O)(=O)c1cc(N=S(C)(=O)C2CC2)cnc1-c1nc2cc(C(F)(F)F)nnc2n1C (stereo not drawn) [P7, cyclopropyl-[[5-ethylsulfonyl-6-[7-methyl-3-(trifluoromethyl)imidazo[4,5-c]pyridazin-6-yl]-3-pyridyl]imino]-methyl-oxo-λ^6-sulfane] | ≥ 80 | ≥ 80 |  | ≥ 80 | ≥ 80 | ≥ 80 | ≥ 80 | ≥ 80 | ≥ 80 | ≥ 80 | ≥ 80
 | CCS(=O)(=O)c1cc(N=S(C)(C)=O)cnc1-c1nc2cc(C(F)(F)F)nnc2n1C [P9, [5-ethylsulfonyl-6-[7-methyl-3-(trifluoromethyl)imidazo[4,5-c]pyridazin-6-yl]-3-pyridyl]imidno-dimethyl-oxo-λ^6-sulfane] | ≥ 80 | ≥ 80 | ≥ 80 | ≥ 80 | ≥ 80 | ≥ 80 |  | ≥ 80 | ≥ 80 | ≥ 80 | 
155 to 157 °C | CCS(=O)(=O)c1cc(N=S(C)(=O)c2ccc(C)cc2)cnc1-c1cn2cnc(C(F)(F)F)cc2n1 (stereo not drawn) [P10, [5-ethylsulfonyl-6-[7-(trifluoromethyl)imidazo[1,2-c]pyrimidin-2-yl]-3-pyridyl]imino-methyl-oxo-(p-tolyl)-λ^6-sulfane] |  |  |  |  |  |  |  |  |  |  | 
 | CCS(=O)(=O)c1cc(N=S2(=O)CCC2)cnc1-c1nc2cc(C(F)(F)F)ncc2n1C [P11, 1-[[5-ethylsulfonyl-6-[3-methyl-6-(trifluoromethyl)imidazo[4,5-c]pyridin-2-yl]-3-pyridyl]imino]thietane 1-oxide] | ≥ 80 | ≥ 80 |  | ≥ 80 | ≥ 80 | ≥ 80 | ≥ 80 | ≥ 80 | ≥ 80 | ≥ 80 | 
 | CCS(=O)(=O)c1cc(N=S2(=O)CCOCC2)cnc1-c1nc2cc(C(F)(F)F)nnc2n1C [P23, 4-[[5-ethylsulfonyl-6-[7-methyl-3-(trifluoromethyl)imidao[4,5-c]pyridazin-6-yl]-3-pyridyl]imino]-1,4-oxathiane 4-oxide] | ≥ 80 | ≥ 80 |  | ≥ 80 | ≥ 80 |  | ≥ 80 | ≥ 80 |  |  | 
253 to 255 °C | CCS(=O)(=O)c1cc(N=S2(=O)CCOCC2)ccc1-c1nc2cc(C(F)(F)F)nnc2n1C [P25, 4-[3-ethylsulfonyl-4-[7-methyl-3-(trifluoromethyl)imidazo[4,5-c]pyridazin-6-yl]phenyl]imino-1,4-oxathiane 4-oxide] |  |  |  |  |  |  |  |  |  |  | 
214 °C (dec.) | CCS(=O)(=O)c1cc(N=S2CCOCC2)cnc1-c1nc2cc(C(F)(F)F)ncc2n1C [P26, 2-[3-ethylsulfonyl-5-(1,4-oxathian-4-ylideneamino)-2-pyridyl]-3-methyl-6-(trifluoromethyl)imidazo[4,5-c]pyridine] |  |  |  |  |  |  |  |  |  |  | 
